Experimental data from patent publication US20220267288A1, “CARDIAC THERAPEUTIC” (priority 2019, published 2022).
Marks after values point to notes of the source that are not given here.

Assays:
[1] = target: T1, CYP3A4 (Homo sapiens, UniProt P08684); experiment: Metabolic stability (substrate depletion) with CYP3A4; type: in vitro ADME; settings: for elimination rate constant k by CYP3A4 / half-life at 1 μM: 1 μM substrate, CYP3A4 10 pmol/mL; for CLint (CYP3A4): PBPK parameter, in vitro data obtained; for half-life at 1 μM: human, CYP3A4 enzyme, pH 7.4, read-out: T1/2 by CYP3A4; for Intrinsic clearance, CLint CYP3A4: substrate depletion
T1 construct: purchased BD Gentest (Woburn, Mass.)
T1 sequence (P08684 whole entry): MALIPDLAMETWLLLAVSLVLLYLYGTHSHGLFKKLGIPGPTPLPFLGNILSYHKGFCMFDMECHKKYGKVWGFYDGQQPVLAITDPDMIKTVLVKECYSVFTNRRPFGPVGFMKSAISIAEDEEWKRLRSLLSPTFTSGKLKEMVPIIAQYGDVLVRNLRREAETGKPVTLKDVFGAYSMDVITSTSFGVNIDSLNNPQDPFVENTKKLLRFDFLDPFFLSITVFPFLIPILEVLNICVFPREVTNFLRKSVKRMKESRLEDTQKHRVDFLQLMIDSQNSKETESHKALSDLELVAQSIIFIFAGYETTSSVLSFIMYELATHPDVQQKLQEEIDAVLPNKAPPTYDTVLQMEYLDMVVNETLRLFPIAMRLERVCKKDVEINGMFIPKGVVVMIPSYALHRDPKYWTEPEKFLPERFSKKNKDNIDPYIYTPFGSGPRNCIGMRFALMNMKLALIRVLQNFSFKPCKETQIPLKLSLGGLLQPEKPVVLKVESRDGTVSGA
Method: The metabolic stability experiments were performed to derive intrinsic clearance (CLint) values via the substrate depletion method. […] NADPH A was subsequently added to initiate the reaction. […] The reaction mixtures were incubated at 37° C. with gentle agitation. At the respective time points (0-60 min), 80 μL of the reaction mixture was quenched using an equal volume of ice-cold ACN with 1 μM tamoxifen as internal standard (IS). The samples were then centrifuged at 3220 g at 4° C. for 30 min before transferring the supernatant to a 96-well plate for liquid chromatography-tandem mass spectrometry (LC-MS/MS) analysis.
The mean of triplicate peak area ratios for each compound was normalized to that of the same compound at the 0 min time point to obtain the percentage of substrate remaining at each time point. This was plotted against incubation time for each compound and the data was then fitted to a one-phase decay model using GraphPad Prism software (version 8.02; GraphPad Inc., San Diego, Calif.) to obtain an estimation for the elimination rate constant (k). CLint was then calculated based on equation 3:
In equation 3, k=elimination rate constant (min^−1); V=volume of incubation mixture (mL); P=amount of protein in mixture (mg).

[2] = tested on: dogs; experiment: Electrophysiological variables (AERP, VERP, repolarization periods) in halothane-anesthetized dogs; type: in vivo, dog; settings: 3 mg/kg
Method: Animals were obtained through Kitayama Labes Co., Ltd. (Nagano, Japan). All experiments were approved by the Toho University Animal Care and User Committee (No. 18-51-395) and performed according to the Guideline for the Care and Use of Laboratory Animals of Toho University.
The dogs were initially anesthetized with thiopental sodium (30 mg/kg, i.v.). After intubation with a cuffed endotracheal tube, anesthesia was maintained by inhalation of halothane (1% v/v) vaporized in oxygen with a volume-limited ventilator (SN-480-3; Shinano Manufacturing Co., Ltd., Tokyo, Japan). Tidal volume and respiratory rate were set at 20 mL/kg and 15 breaths/min, respectively. […] To prevent blood clotting, heparin calcium (100 IU/kg) was intravenously administered through a flush line of the catheter sheath placed at the right femoral vein.
The lead II electrocardiogram was obtained from the limb electrodes. The P-wave duration, PR interval, QRS width and QT interval were measured, and QT interval was corrected with Van de Water's formula: QTc=QT-0.087×(RR-1,000) with RR given in ms. The J-Tpeak and Tpeak-Tend were measured as follows. When the end of T-wave was obscure, we used the monophasic action potential (MAP) signal as a guide to estimate the end. The J-Tpeak was corrected for the heart rate with a coefficient as previously described (J-Tpeakc=J-Tpeak/RR^0.58 with RR given in seconds).
A standard 6-French, quad-polar electrodes catheter (Cordis-Webster Inc., Baldwin Park, Calif., USA) was positioned at the non-coronary cusp of the aortic valve through the left femoral artery to obtain the His bundle electrogram. Another 6-French, quad-polar electrode catheter (Cordis-Webster Inc.) was positioned at the sinus nodal areas of the right atrium through the right femoral vein to electrically pace and to record the local electrogram. A bi-directional steerable MAP recording/pacing combination catheter (1675P; EP Technologies, Inc., CA, USA) was positioned at the endocardium of the interventricular septum in the right ventricle through the left femoral vein to obtain MAP signals. The signals were amplified with a DC preamplifier (model 300; EP Technologies, Inc.). The duration of the MAP signals was measured as an interval, along a horizontal line corresponding to the diastolic baseline, from the MAP upstroke to the desired repolarization level. The interval (ms) at 90% repolarization was defined as MAP90.
The heart was electrically driven with a cardiac stimulator (SEC-3102; Nihon Kohden Co., Ltd.) via the pacing electrodes of the combination catheter placed in the right ventricle or the electrodes of the catheter placed at the right atrium. The stimulation pulses were rectangular in shape, 1-2 V (about twice the threshold voltage) and 1 ms duration. The MAP90 of the ventricle was measured during sinus rhythm (MAP90(sinus)) and at a pacing cycle length of 400 ms (MAP90(CL400)) and 300 ms (MAP90(CL300)). The atrial effective refractory period (AERP) and ventricular effective refractory period (VERP) were assessed with the programmed electrical stimulation. The pacing protocol consisted of 5 beats of basal stimuli in a cycle length of 400 ms followed by an extra stimulus of various coupling intervals. Starting in the late diastole, the coupling interval was shortened in 5-ms decrements until the additional stimulus could no longer elicit a response. The AERP and VERP were defined as the shortest coupling interval that could produce a response. The duration of the terminal repolarization period of the ventricle, reflecting phase-3 repolarization time of the action potential, was calculated by the difference between the MAP90(CL400) and VERP (terminal repolarization period=MAP90(CL400)−VERP) at the same site to estimate the extent of electrical vulnerability of the ventricular muscle.

SMILES | elimination rate constant k by CYP3A4 [1] [min⁻¹] | CLint (CYP3A4) [1] | half-life at 1 μM [1] [min] | Intrinsic clearance, CLint CYP3A4 [1] [µL/min/pmol] | Intrinsic clearance, CLint CYP3A4 ([1]; listed as dronedarone) [µL/min/pmol] | ΔAERP ([2]; 20 min after administration) | ΔVERP ([2]; 20 min after administration) | ΔJ-Tpeakc (early repolarization period) ([2]; 60 min after administration) | ΔTRP (terminal repolarization period) ([2]; 60 min after administration) | ΔTpeak-Tend (late repolarization period) ([2]; 60 min after administration) | ΔAERP ([2]; 30 min after administration) | ΔVERP ([2]; 30 min after administration) | ΔAERP ([2]; 45 min after administration) | ΔJ-Tpeakc (early repolarization period) ([2]; 45 min after administration) | ΔTRP (terminal repolarization period) ([2]; 45 min after administration) | ΔTpeak-Tend (late repolarization period) ([2]; 45 min after administration) | ΔVERP ([2]; 45 min after administration)
CCCCc1oc2ccc(NS(C)(=O)=O)cc2c1C(=O)c1ccc(OCCCN(CCCC)CCCC)cc1.Cl [Dronedarone] | 0.04144 | 114.739* μL/min/mg microsomal protein | 16.7 | 8.29 | 8.288 | +43 | +23 | +7 | +11 | +25 | – | – | – | – | – | – | –
Cl.[2H]c1c(NS(C)(=O)=O)c([2H])c2c(C(=O)c3ccc(OCCCN(CCCC)CCCC)cc3)c(CCCC)oc2c1[2H] [Poyendarone, Methanesulfonamide, N-(2-butyl-3-(4-(3-(dibutylamino)propoxy)benzoyl)-1-benzo(4,6,7-d3)-furan-5-yl)hydrochloride] | 0.0918 | 115.2016* μL/min/mg microsomal protein | 7.55 | 9.18 | – | – | – | – | – | – | +25 | +14 | +34 | −5 | −1.5 | +1 | +13
